US11628220B2, “Pharmaceutical composition and methods of uses” (Foresee Pharmaceuticals Co., Ltd., priority 2016, dated 2023)
≈ marks a conversion by molar mass, not a printed value. Each block holds one molecule with its values, some of them ahead of it.

Assays:
Assay type in all cases: physicochemical
[1] = Aqueous solubility in different cyclodextrin solutions (excess compound, shaken 24 hours, HPLC); details: aqueous cyclodextrin solution, thermodynamic from solid, room temperature, read-out: Solubility in CD's solution (concentration of compound)
Experimental: (§1) In order to test the effect of various CDs on the aqueous solubility of compound IVE, 1 mL of each of the following aqueous solutions as described in Table 2 was prepared. […] Excess IVE was present in all samples at all times to obtain solubility. After 24-hours, the samples were centrifuged. […] The size of the compound may allow it to form an inclusion complex, resulting in a higher aqueous solubility.
as §1, with “compound IVP,” for “compound IVE,”, “Table 3” for “Table 2”, “Excess IVP” for “Excess IVE”, “all times.” for “all times to obtain solubility.”
as §1, with “compound IVO,” for “compound IVE,”, “Table 4” for “Table 2”, “Excess IVO” for “Excess IVE”, “all times.” for “all times to obtain solubility.”, “inclusion body” for “inclusion”
as §1, with “compound IVQ,” for “compound IVE,”, “Table 5” for “Table 2”, “Excess IVQ” for “Excess IVE”, “all times.” for “all times to obtain solubility.”, “inclusion body” for “inclusion”

[2] = Comparable solubility test for IVO ASD-01 in DI water; details: 1.5 ml DI water
Experimental: The samples were centrifuged at 3 and 24 hours.

[3] = Solubility of compound IVO in solutions containing L-Arginine; details: thermodynamic from solid
From the text: After 24-hours, the samples were centrifuged. […] One possibility is that L-Arginine may help promote the formation of inclusion complex between IVO and MBCD.

[4] = aqueous with cosolvent or surfactant or cyclodextrin, ACD 40 mg/ml
[5] = aqueous with cosolvent or surfactant or cyclodextrin, HPBCD 100 mg/ml
[6] = aqueous with cosolvent or surfactant or cyclodextrin, HPGCD 100 mg/ml
[7] = aqueous with cosolvent or surfactant or cyclodextrin, MBCD 100 mg/ml
[8] = aqueous with cosolvent or surfactant or cyclodextrin, SBEBCD 100 mg/ml

solubility at 24 h ([1]; aqueous with cosolvent or surfactant or cyclodextrin, ACD 5 mg/ml): 37 µg/mL (≈ 93.8 µM)
solubility at 24 h ([1]; aqueous with cosolvent or surfactant or cyclodextrin, ACD 10 mg/ml): 30 µg/mL (≈ 76.1 µM)
solubility at 24 h ([1]; aqueous with cosolvent or surfactant or cyclodextrin, ACD 15 mg/ml): 26 µg/mL (≈ 65.9 µM)
solubility at 24 h ([1]; aqueous with cosolvent or surfactant or cyclodextrin, ACD 20 mg/ml): 13 µg/mL (≈ 33 µM)
solubility at 24 h ([1]; aqueous with cosolvent or surfactant or cyclodextrin, ACD 30 mg/ml): 10 µg/mL (≈ 25.4 µM)
solubility at 24 h [1, 4]: 17 µg/mL (≈ 43.1 µM)
solubility at 24 h ([1]; aqueous with cosolvent or surfactant or cyclodextrin, HPBCD 25 mg/ml): 37 µg/mL (≈ 93.8 µM)
solubility at 24 h ([1]; aqueous with cosolvent or surfactant or cyclodextrin, HPBCD 50 mg/ml): 83 µg/mL (≈ 210 µM)
solubility at 24 h ([1]; aqueous with cosolvent or surfactant or cyclodextrin, HPBCD 75 mg/ml): 108 µg/mL (≈ 274 µM)
solubility at 24 h [1, 5]: 184 µg/mL (≈ 466 µM)
solubility at 24 h ([1]; aqueous with cosolvent or surfactant or cyclodextrin, HPBCD 150 mg/ml): 312 µg/mL (≈ 791 µM)
solubility at 24 h ([1]; aqueous with cosolvent or surfactant or cyclodextrin, HPBCD 200 mg/ml): 467 µg/mL (≈ 1180 µM)
solubility at 24 h ([1]; aqueous with cosolvent or surfactant or cyclodextrin, HPGCD 25 mg/ml): 9 µg/mL (≈ 22.8 µM)
solubility at 24 h ([1]; aqueous with cosolvent or surfactant or cyclodextrin, HPGCD 50 mg/ml): 16 µg/mL (≈ 40.6 µM)
solubility at 24 h ([1]; aqueous with cosolvent or surfactant or cyclodextrin, HPGCD 75 mg/ml): 6 µg/mL (≈ 15.2 µM)
solubility at 24 h [1, 6]: 2 µg/mL (≈ 5.07 µM)
solubility at 24 h ([1]; aqueous with cosolvent or surfactant or cyclodextrin, HPGCD 150 mg/ml): 4 µg/mL (≈ 10.1 µM)
solubility at 24 h ([1]; aqueous with cosolvent or surfactant or cyclodextrin, HPGCD 200 mg/ml): 3 µg/mL (≈ 7.61 µM)
solubility at 24 h ([1]; aqueous with cosolvent or surfactant or cyclodextrin, MBCD 25 mg/ml): 244 µg/mL (≈ 619 µM)
solubility at 24 h ([1]; aqueous with cosolvent or surfactant or cyclodextrin, MBCD 50 mg/ml): 477 µg/mL (≈ 1210 µM)
solubility at 24 h ([1]; aqueous with cosolvent or surfactant or cyclodextrin, MBCD 75 mg/ml): 673 µg/mL (≈ 1710 µM)
solubility at 24 h [1, 7]: 1070 µg/mL (≈ 2700 µM)
solubility at 24 h ([1]; aqueous with cosolvent or surfactant or cyclodextrin, MBCD 150 mg/ml): 1700 µg/mL (≈ 4300 µM)
solubility at 24 h ([1]; aqueous with cosolvent or surfactant or cyclodextrin, MBCD 200 mg/ml): 1780 µg/mL (≈ 4520 µM)
solubility at 24 h ([1]; aqueous with cosolvent or surfactant or cyclodextrin, SBEBCD 25 mg/ml): 94 µg/mL (≈ 238 µM)
solubility at 24 h ([1]; aqueous with cosolvent or surfactant or cyclodextrin, SBEBCD 50 mg/ml): 116 µg/mL (≈ 294 µM)
solubility at 24 h ([1]; aqueous with cosolvent or surfactant or cyclodextrin, SBEBCD 75 mg/ml): 156 µg/mL (≈ 395 µM)
solubility at 24 h [1, 8]: 174 µg/mL (≈ 441 µM)
solubility at 24 h ([1]; aqueous with cosolvent or surfactant or cyclodextrin, SBEBCD 150 mg/ml): 315 µg/mL (≈ 799 µM)
solubility at 24 h ([1]; aqueous with cosolvent or surfactant or cyclodextrin, SBEBCD 200 mg/ml): 761 µg/mL (≈ 1930 µM)
solubility at 24 h ([1]; water, ACD 0 mg/ml): 26 µg/mL (≈ 65.9 µM)
solubility at 24 h ([1]; water, HPBCD 0 mg/ml): 26 µg/mL (≈ 65.9 µM)
solubility at 24 h ([1]; water, HPGCD 0 mg/ml): 26 µg/mL (≈ 65.9 µM)
solubility at 24 h ([1]; water, MBCD 0 mg/ml): 26 µg/mL (≈ 65.9 µM)
solubility at 24 h ([1]; water, SBEBCD 0 mg/ml): 26 µg/mL (≈ 65.9 µM)
pH at 24 hrs equilibrium ([2]; 24 hrs): 8.09
solubility at 24 h ([2]; pH 8.09, thermodynamic from solid, room temperature, 24 hrs): 11 µg/mL (≈ 27.9 µM)
solubility at 3 h ([2]; thermodynamic from solid, room temperature, 3 hrs): 2 µg/mL (≈ 5.07 µM)
solubility at 24 h ([3]; DI water, water, L-Arginine 0 % w/w in DI water): 1.15 µg/mL (≈ 2.91 µM)
solubility at 24 h ([3]; aqueous L-Arginine solution in DI water, aqueous with cosolvent or surfactant or cyclodextrin, L-Arginine 0.15 % w/w in DI water): 11.1 µg/mL (≈ 28.1 µM)
solubility at 24 h ([3]; aqueous L-Arginine solution in DI water, aqueous with cosolvent or surfactant or cyclodextrin, L-Arginine 0.31 % w/w in DI water): 15.1 µg/mL (≈ 38.3 µM)
solubility at 24 h ([3]; aqueous L-Arginine solution in DI water, aqueous with cosolvent or surfactant or cyclodextrin, L-Arginine 0.5 % w/w in DI water): 25.3 µg/mL (≈ 64.2 µM)
solubility at 24 h ([3]; aqueous L-Arginine solution in DI water, aqueous with cosolvent or surfactant or cyclodextrin, L-Arginine 0.63 % w/w in DI water): 34.2 µg/mL (≈ 86.7 µM)
solubility at 24 h ([3]; aqueous L-Arginine solution in DI water, aqueous with cosolvent or surfactant or cyclodextrin, L-Arginine 1.25 % w/w in DI water): 46.8 µg/mL (≈ 119 µM)
solubility at 24 h ([3]; aqueous L-Arginine solution in DI water, aqueous with cosolvent or surfactant or cyclodextrin, L-Arginine 2.5 % w/w in DI water): 85.8 µg/mL (≈ 218 µM)
SMILES: Cc1cccc(COc2ccc(Sc3ccoc3C3NC(=O)NC3=O)cc2)c1 (centres unmarked) [IVO, 5-{3-[4-(3-Methyl-benzyloxy)phenylthio]fur-2-yl}imidazolidine-2,4-dione]

solubility at 24 h [1, 4]: 53 µg/mL (≈ 129 µM)
solubility at 24 h [1, 5]: 744 µg/mL (≈ 1810 µM)
solubility at 24 h [1, 6]: 59 µg/mL (≈ 144 µM)
solubility at 24 h [1, 7]: 3250 µg/mL (≈ 7920 µM)
solubility at 24 h [1, 8]: 815 µg/mL (≈ 1990 µM)
solubility at 24 h ([1]; water, ACD 0 mg/ml): 23 µg/mL (≈ 56 µM)
solubility at 24 h ([1]; water, HPBCD 0 mg/ml): 23 µg/mL (≈ 56 µM)
solubility at 24 h ([1]; water, HPGCD 0 mg/ml): 23 µg/mL (≈ 56 µM)
solubility at 24 h ([1]; water, MBCD 0 mg/ml): 23 µg/mL (≈ 56 µM)
solubility at 24 h ([1]; water, SBEBCD 0 mg/ml): 23 µg/mL (≈ 56 µM)
SMILES: COc1cccc(COc2ccc(Sc3ccoc3C3NC(=O)NC3=O)cc2)c1 (centres unmarked) [IVE, 5-{3-[4-(3-Methoxybenzyloxy)phenylthio]fur-2-yl}imidazolidine-2,4-dione]

solubility at 24 h [1, 4]: 15 µg/mL (≈ 38 µM)
solubility at 24 h [1, 5]: 727 µg/mL (≈ 1840 µM)
solubility at 24 h [1, 6]: 1 µg/mL (≈ 2.54 µM)
solubility at 24 h [1, 7]: 6270 µg/mL (≈ 15900 µM)
solubility at 24 h [1, 8]: 805 µg/mL (≈ 2040 µM)
solubility at 24 h ([1]; water, ACD 0 mg/ml): 64 µg/mL (≈ 162 µM)
solubility at 24 h ([1]; water, HPBCD 0 mg/ml): 64 µg/mL (≈ 162 µM)
solubility at 24 h ([1]; water, HPGCD 0 mg/ml): 64 µg/mL (≈ 162 µM)
solubility at 24 h ([1]; water, MBCD 0 mg/ml): 64 µg/mL (≈ 162 µM)
solubility at 24 h ([1]; water, SBEBCD 0 mg/ml): 64 µg/mL (≈ 162 µM)
SMILES: Cc1ccccc1COc1ccc(Sc2ccoc2C2NC(=O)NC2=O)cc1 (centres unmarked) [IVP, 5-{3-[4-(2-Methyl-benzyloxy)phenylthio]fur-2-yl}imidazolidine-2,4-dione]

solubility at 24 h [1, 4]: 111 µg/mL (≈ 248 µM)
solubility at 24 h [1, 5]: 1220 µg/mL (≈ 2710 µM)
solubility at 24 h [1, 7]: 5780 µg/mL (≈ 12900 µM)
solubility at 24 h [1, 8]: 641 µg/mL (≈ 1430 µM)
solubility at 24 h ([1]; water, ACD 0 mg/ml): 138 µg/mL (≈ 308 µM)
solubility at 24 h ([1]; water, HPBCD 0 mg/ml): 138 µg/mL (≈ 308 µM)
solubility at 24 h ([1]; water, HPGCD 0 mg/ml): 138 µg/mL (≈ 308 µM)
solubility at 24 h ([1]; water, MBCD 0 mg/ml): 138 µg/mL (≈ 308 µM)
solubility at 24 h ([1]; water, SBEBCD 0 mg/ml): 138 µg/mL (≈ 308 µM)
SMILES: O=C1NC(=O)C(c2occc2Sc2ccc(OCc3cccc(C(F)(F)F)c3)cc2)N1 (centres unmarked) [IVQ, 5-{3-[4-(3-Trifluoromethyl-benzyloxy)phenylthio]fur-2-yl}imidazolidine-2,4-dione]
